From patent US20030203963A1, “Antimicrobial agent” (priority 2001, published 2003)

Columns and labels:
Salmonella spp = assay: Lab media at optimum temperature (summary); type: cell-based
Protocol: (§1) For broth cultures and Bioscreen testing most bacteria were grown in Brain Heart Infusion (BHI, Oxoid, pH 7.4). Lactobacillus sake A10 was grown in de Man, Rogosa, Sharpe medium ([…], Oxoid). Yeasts were grown in Sabouraud Liquid medium (SLM, Oxoid). Most bacteria were cultured at 30° C. Lactic acid bacteria were grown on solid medium in enriched CO2 atmosphere. Clostridium species were grown in Reinforced Clostridial Medium (RCM) at 37° C. anaerobically. Brochothrix thermosphacta fungi and yeasts were grown at 25° C. Fungi were cultured on Malt Extract Agar (MEA, Oxoid).
(§2) An automated Microbiology Reader Bioscreen C was used to measure growth curves of the strains in the presence and absence of APP. The Bioscreen C measures the development of turbidity (i.e. growth) kinetically by vertical photometry in 200 wells of a honeycomb microtitre plate, simultaneously. The system consists of a Bioscreen C analyser, which is an incubator and measurement unit, integrated with a PC, software (BioLink v 5.30), printer and a ‘Honeycomb 2’ cuvette multiwell plate. Growth curve data can be analysed within the BioLink software or exported to programs such as Excel.
(§3) Broth culture media were dispensed in 270 μl volumes into the wells as directed. Serial dilutions of a filter-sterilised APP stock solution were then dispensed into the same wells, as appropriate. The wells were inoculated with 30 μl of an appropriately diluted overnight broth culture or spore suspension, to give a final inoculum level of […]. The tests were incubated in the Bioscreen C for either 24 h at 30° C., or 72 h at 25° C. (depending on the micro-organism under investigation) with readings taken every 20 minutes after the trays were shaken. After the incubation period was complete the data were exported to Excel for analysis.

Most yeasts = assay: Lab media at optimum temperature (summary); type: cell-based
Protocol: as §1, §2, §3

[1] = system: Salmonella Typhimurium DSMZ 554; assay: Preliminary growth inhibition test; type: cell-based; conditions: 37° C., 24 hour
From the text: (§4) Antimicrobial activity was investigated using Salmonella Typhimurium and Listeria innocua.

Listeria innocua = assay: Preliminary growth inhibition test; type: cell-based; conditions: 37° C., 20 hours
From the text: as §4

Cl. tyrobutyricum 2753 = assay: Sensitivity testing for Clostridium species in cooked meat medium; type: cell-based; conditions: highest level tested 2000 ppm APP20010215, anaerobically at 37° C.
Protocol: Stock solutions of APP215 (0.5, 1 and 2%) were prepared and filter-sterilised. Cooked meat medium (CMM, Oxoid) was prepared by distributing 1 g of the medium to individual test tubes, which were then filled with 8.9 ml water. After autoclaving 100 μl of the APP stock solutions were added, to give final concentrations of 0, 500, […] and 2000 ppm APP. The tests were inoculated with […] of Clostridium spores, to give an inoculum level of ca. 10 cfu/ml. The tubes were overlaid with 3 ml of 2% agar to maintain anaerobicity. The tests were incubated at 37° C., and examined daily for signs of growth (turbidity, gas production).

Y. enterocolitica S16 = assay: Bioscreen growth inhibition test; type: cell-based, Yersinia enterocolitica; conditions: BS010510, 24 h/30, APP20010213
Protocol: as §1, §2
Broth culture media were dispensed in 270 μl volumes into the wells as directed. […] (depending on the micro-organism under investigation) with readings taken every 20 minutes after the trays were shaken. […]

Salm Typhimurium S29 = assay: Chicken soup trial at 8° C.; type: cell-based, Salmonella Typhimurium; conditions: chicken soup at 8° C., TCSM010521, APP215
From the text: (§5) A local supermarket brand of cream of chicken soup was used as a model food system. 600 g packs were purchased from the local supermarket. This was a ‘fresh home-made type’ of soup that was stored in the chill cabinet, with a short shelf life. It was chosen because it is a rich, nutritious food system containing a range of food components including meat, dairy and vegetable.
(§6) Ingredients were labelled as: chicken stock (water, duck fat, chicken, salt, flavourings, yeast extracts, pork gelatine, glucose syrup, vegetable concentrate, milk protein, sugar, malto-dextrin, vegetable oil, citric acid, lactose, chicken fat), ilk, chicken (9%), cream (8%), onion, potato, vegetable oil, modified maize starch, wheat flour, lemon juice, salt, white pepper. pH 5.912. Protein: 3.3%; carbohydrate: 4.7%; fat: 7.2%; fibre: 0.2%; sodium: 0.1%
(§7) For the test the soup was mixed 2:1 in water (to facilitate sampling and mixing) and sterilised by autoclaving at 121° C. for 15 minutes. For each experiment the pH of the soup was recorded; this was between pH 5.79-5.88.
For TCS010521/8 (incubated at 8° C.), samples were prepared in 27.8 g quantities. 1.5 g of an APP stock solution was added, and the tests inoculated with 0.3 ml of a suitably diluted cell or spore suspension to give a final inoculum of ca. 10^3 cfu/g. APP was tested at 0, 500 and 1000 ppm, and batch number APP20010213 (at 169 mg/ml) was used. […]

Salm. Typhimurium S29 = assay: Bioscreen growth inhibition test; type: cell-based, Salmonella Typhimurium; conditions: BS010411, 24 h/30° C.
Protocol: as §1, §2, §3

S. cerevisiae 9763 = assay: Chicken soup trial at 20° C.; type: cell-based, Saccharomyces cerevisiae; conditions: 2000 ppm; chicken soup at 20° C., TCSM010430, APP20010213
From the text: as §5, §6, §7
For TCS010430/20 (incubated at 20° C.) samples were prepared in 18.8 g quantities, to which 1 g of a suitable filter-sterilised APP stock solution was added and an appropriately diluted 0.2 ml inoculum. Great care was again taken to ensure homogeneous distribution of the APP and micro-organisms. […]

SMILES: O=C1CC(CO)OC=C1O (stereo not drawn) [APP, Ascopyrone P]
- Partial inhibition (effect on growth of target organism by 2000 ppm APP) (Salmonella spp): Salmonella spp
- Effect on growth of target organism by 2000 ppm APP (remark in No inhibition column) (Most yeasts): (enhanced growth)
- No inhibition (effect on growth of target organism by 2000 ppm APP) (Most yeasts): Most yeasts
- Inhibition of bacterial growth ([1]; 500 μg/ml APP): Intermediate inhibition
- Inhibition of bacterial growth ([1]; 1000 μg/ml APP): strong inhibition
- Inhibition of bacterial growth ([1]; 2000 μg/ml APP, 10e3 and 10e5 cfu/ml): complete inhibition
- Inhibition of bacterial growth ([1]; 4000 μg/ml APP, 10e3 and 10e5 cfu/ml): complete inhibition
- Inhibitory effect ([1]; 10e3 or 10e5 cfu/ml): satisfactory inhibitory effect
- Inhibition of bacterial growth (Listeria innocua; 500 μg/ml APP, 10e3 cfu/ml): slight inhibition
- Inhibition of bacterial growth (Listeria innocua; 500 μg/ml APP, 10e5 cfu/ml): almost no inhibition
- Inhibition of bacterial growth (Listeria innocua; 1000 μg/ml APP, 10e3 cfu/ml): intermediate inhibition
- Inhibition of bacterial growth (Listeria innocua; 1000 μg/ml APP, 10e5 cfu/ml): slight inhibition
- Inhibition of bacterial growth (Listeria innocua; 2000 μg/ml APP, 10e3 cfu/ml): almost complete inhibition
- Inhibition of bacterial growth (Listeria innocua; 2000 μg/ml APP, 10e5 cfu/ml): intermediate inhibition
- Inhibitory effect (Listeria innocua; 10e3 or 10e5 cfu/ml): satisfactory inhibitory effect
- Growth inhibition (Cl. tyrobutyricum 2753): No growth inhibition
- APP level causing total inhibition (Y. enterocolitica S16): 2000 ppm
- Total inhibition for (Salm Typhimurium S29; 500 ppm): Total inhibition by 500 ppm for 25 d
- Total inhibition for (Salm Typhimurium S29; 1000 ppm): Total inhibition by 1000 ppm for >27 d
- APP level causing significant inhibition (Salm. Typhimurium S29; APP 20010213): 2000 ppm
- APP level causing total inhibition (Salm. Typhimurium S29; APP 20010213): 4000 ppm
- APP level causing significant inhibition (Salm. Typhimurium S29; APP 20010215): 2000 ppm
- APP level causing total inhibition (Salm. Typhimurium S29; APP 20010215): >4000 ppm
- Effect on growth (S. cerevisiae 9763): No effect with 2000 ppm
